In patent publication US5462954A, “Substituted phenyl phenol leukotriene antagonists” (Eli Lilly and Company, priority 1994, dated 1995):
Where a name gives a salt, the structure may show the parent alone.

Target: binding of tritiated LTB4 to guinea pig lung membranes (Cavia porcellus, UniProt H0VYV8)
Test: biochemical
Settings: read-out: pKi (mean -log Ki) (converted)
Method: The effectiveness of compounds of Formula I to inhibit the binding of tritiated LTB4 to guinea pig lung membranes was determined as follows.
The binding reaction was terminated by the addition of 1 mL ice cold wash buffer (25 mM Tris-HCl, pH 7.5) followed immediately by vacuum filtration over Whatman GF/C glass fiber filters using a Brandel (Gaithersburg, Md.) 48 place harvester. The filters were washed three times with 1 mL of wash buffer. Retained radioactivity was determined by liquid scintillation counting at 50% counting efficiency using Ready Protein Plus cocktail (Beckman, Fullerton, Calif.). Nondisplaceable binding was determined in the presence of 1 μM LTB4 and was usually less than 10% of total binding. […] The data reported below is the mean -log Ki, otherwise known as the pKi, for n experiments.

Chain of binding of tritiated LTB4 to guinea pig lung membranes (H0VYV8 1-348): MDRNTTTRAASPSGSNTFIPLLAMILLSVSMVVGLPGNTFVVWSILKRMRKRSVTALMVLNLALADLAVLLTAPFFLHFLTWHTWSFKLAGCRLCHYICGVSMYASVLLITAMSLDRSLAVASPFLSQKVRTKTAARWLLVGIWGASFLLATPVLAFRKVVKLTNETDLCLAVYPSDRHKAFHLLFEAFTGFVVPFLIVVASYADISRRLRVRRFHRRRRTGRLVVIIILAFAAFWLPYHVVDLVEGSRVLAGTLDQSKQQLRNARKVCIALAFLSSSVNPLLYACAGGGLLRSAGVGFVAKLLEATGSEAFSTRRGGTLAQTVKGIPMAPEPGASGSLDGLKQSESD

Row | Compound | Ki [nM]
1 | CCCc1c(OCCCOc2cc(O)c(-c3ccccc3)cc2CC)cccc1Oc1ccccc1-c1nnn[nH]1 [Example 63, 5-Ethyl-4-[3-[2-propyl-3-[2-(2H-tetrazol-5-yl)phenoxy]phenoxy]propoxy][1,1'-biphenyl]-2-ol disodium salt sesquihydrate] | 11.5
2 | CCc1cc(-c2ccccc2)c(O)cc1OCCCOc1ccc2c(=O)c3ccccc3oc2c1CCC(=O)O [Example 64, 3-[4-[3-[3-(2-Ethyl-5-hydroxy-4-phenylphenoxy)propoxy]-9-oxo-9H-xanthene]]propanoicacid sodium salt hemihydrate] | 14.1
3 | CCCc1c(OCCCOc2cc(O)c(-c3ccccc3)cc2CC)cccc1Oc1cccc(F)c1C(=O)O [Example 65, 2-Fluoro-6-[2-propyl-3-[3-(2-ethyl-5-hydroxy-4-phenylphenoxy)propoxy]phenoxy]benzoic acid disodium salt] | 12.3
4 | CCc1cc(-c2ccc(F)cc2)c(O)cc1OCCCOc1ccc2c(=O)c3cc(C(=O)O)ccc3oc2c1CCC(=O)O [Example 67, 3-[4-[7-Carboxy-9-oxo-3-[3-[2-ethyl-4-(4-fluorophenyl)-5-hydroxyphenoxy]propoxy]-9H-xanthene]] propanoic acid disodium salt trihydrate] | 0.024
5 | CCc1cc(-c2ccc(F)cc2)c(O)cc1OCCCOc1ccc2c(=O)c3ccccc3oc2c1CCC(=O)O [Example 68, 3-[4-[9-Oxo-3-[3-[2-ethyl-4-(4-fluorophenyl)-5-hydroxyphenoxy]propoxy]-9H-xanthene]]propanoic acid] | 3.47
6 | CCc1cc(-c2ccc(F)cc2)c(O)cc1OCCCOc1ccc(NC(=O)CCCC(=O)N2CCOCC2)cc1CCC(=O)O [Example 69] | 12.9
7 | CCCc1c(OCCCOc2cc(O)c(-c3ccc(F)cc3)cc2CC)cccc1Oc1cccc(F)c1C(=O)O [Example 70, 2-Fluoro-6-[2-propyl-3-[3-[2-ethyl-5-hydroxy-4-(4-fluorophenyl)phenoxy]propoxy]phenoxy]benzoic acid disodium salt hydrate] | 8.13
8 | CCCc1c(OCCCOc2cc(O)c(-c3ccc(F)cc3)cc2CC)cccc1Oc1cc(F)ccc1C(=O)O [Example 71, 4-Fluoro-2-[2-propyl-3-[3-[2-ethyl-5-hydroxy-4-(4-fluorophenyl)phenoxy]propoxy]phenoxy]benzoic acid] | 17
9 | CCCc1c(OCCCCCOc2cc(O)c(-c3ccc(F)cc3)cc2CC)cccc1Oc1ccccc1C(=O)O [Example 72, 2-[2-Propyl-3-[5-[2-ethyl-5-hydroxy-4-(4-fluorophenyl)phenoxy]pentoxy]phenoxy]benzoic acid] | 6.61
10 | CCCc1c(OCCCCOc2cc(O)c(-c3ccc(F)cc3)cc2CC)cccc1Oc1ccccc1C(=O)O [Example 73, 2-[2-Propyl-3-[4-[2-ethyl-5-hydroxy-4-(4-fluorophenyl)phenoxy]butoxy]phenoxy]benzoic acid sesquihydrate] | 17.8
11 | CCc1cc(-c2ccc(F)cc2)c(O)cc1OCCCOc1cccc(Oc2ccccc2C(=O)O)c1CC(C)C [Example 74, 2-[2-(2-Methylpropyl)-3-[3-[2-ethyl-5-hydroxy-4-(4-fluorophenyl)phenoxy]propoxy]phenoxy]benzoic acid] | 13.8
12 | CCCCc1c(OCCCOc2cc(O)c(-c3ccc(F)cc3)cc2CC)cccc1Oc1ccccc1C(=O)O [Example 75, 2-[2-Butyl-3-[3-[2-ethyl-5-hydroxy-4-(4-fluorophenyl)phenoxy]propoxy]phenoxy]benzoic acid hydrate] | 16.2
13 | CCc1cc(-c2ccc(F)cc2)c(O)cc1OCCCOc1cccc(Oc2ccccc2C(=O)O)c1Cc1ccccc1 [Example 76, 2-[2-(Phenylmethyl)-3-[3-[2-ethyl-5-hydroxy-4-(4-fluorophenyl)phenoxy]propoxy]phenoxy]benzoic acid] | 53.7
14 | CCCc1c(OCCCOc2cc(O)c(-c3ccc(F)cc3)cc2CC)cccc1Oc1ccccc1CC(=O)O [Example 77, 2-[2-Propyl-3-[3-[2-ethyl-5-hydroxy-4-(4-fluorophenyl)phenoxy]propoxy]phenoxy]phenylacetic acid] | 8.13
